From US4056629A, “Pharmacologically active O-acyl-2,3-diaryl-3-halogeno-acryl-aldoximes” (Hoechst Aktiengesellschaft, priority 1975, dated 1977)

Key:
[1] = test system: gout-like disturbance of the purine metabolism; experiment: 3-day cycle in the oxonate rat (uric acid in urine on days 1-3 and in serum on day 3); format: in vivo, white male Wistar rats; conditions: for Serum Uric acid conc.: third day, * statistically significant p < 0.05 (Duncan test)
Experimental: (§1) The uricosuric and hypouricemic effects were observed by way of experiment on the oxonate rat. In this experimental test arrangement the uricase activity of the rat liver was inhibited by the administration of potassium oxonate, thus producing a gout-like disturbance of the purine metabolism. The effect was tested in the following test arrangement:
2. The influence on the gout-like metabolism disturbance which had been induced by way of experiment was also examined in a 3-day cycle. For this purpose, the animals (white male Wistar rats) were placed into the metabolism cages 18 hours prior to the start of the experiment. The animals drank water, and they were offered a special fodder mixture to consume ad libitum. The composition of the fodder mixture was as follows: 5 % of fructose, 3% of uric acid, 2 % of potassium oxonate, and 100 mg of synthetic sweetening agent (acesulfame) per 1 kg of body weight. On the first and second days of the experiment, the compositions were administered to the animals, in a 0.5 % potassium-oxanate solution, into the stomach by way of an esophagal sound. The urine samples were examined on the first, second and third days of the experiment, and the serum samples were tested for their uric acid content on the third day of the experiment.
In Table 4 the results following the application of allopurinol (as comparative substance) have been indicated in the above-mentioned experimental scheme.

[2] = test system: gout-like disturbance of the purine metabolism; experiment: 24-hour test in the oxonate rat (uric acid, urine volume, pH and Na+ after potassium oxonate); format: in vivo, male Wistar rats; conditions: for Uric acid serum (-x (mg %) ± SD): control 5.41 + 0.66, * statistically significant (U test); for Activity in words (heading of Table 2): Example 14 combined with the increase of diuresis and the excretion of sodium
Experimental: as §1
1. The influence on the gout-like disturbance of the purine metabolism which had been induced by way of experiment was tested in a 24 hour test. In this test arrangement, the animals are given the substances in a 0.5 % potassium-oxonate solution into the stomach by means of an esophagal sound, after water and fodder had been withheld for 18 hours. During the entire test period, the animals are given the 0.5 % potassium-oxonate solution ad libitum. After 8 hours, they are additionally given 5 ml of water per 100 g of body weight into the stomach, by way of an esophagal sound. After 24 hours urine samples were taken, the animals were killed in a narcosis produced by ether, and the blood and urine were analysed for the content of uric acid. In addition, the creatinine concentration, the sodium, potassium and chloride concentration in the urine and serum samples were determined.

[3] = Table 3, 3 mg/kg, 1st day, oxonate control 3.38
[4] = Table 3, 3 mg/kg, 1st day, oxonate control 42.5
[5] = Table 3, 3 mg/kg, 2nd day, oxonate control 3.83
[6] = Table 3, 3 mg/kg, 2nd day, oxonate control 42.9
[7] = Table 3, 3 mg/kg, 3rd day, oxonate control 5.17
[8] = Table 3, 3 mg/kg, 3rd day, oxonate control 48.8
[9] = Table 3, 3 mg/kg, oxonate control 5.49
[10] = Table 2 II, 0.3 mg/kg, control = 100
[11] = Table 2 II, 3.0 mg/kg, control = 100
[12] = Table 2 I, 3 mg/kg, oxonate control group = 100

## Oc1ncnc2[nH]ncc12 [Allo, Allopurinol, reference compound]
[1]; Table 4, 50 mg/kg, 1st day, oxonate control 0.80
  Urine Amount of uric acid: 0.91 mg/24 h
[1]; Table 4, 50 mg/kg, 1st day, oxonate control 11.3
  Urine Uric acid conc.: 11.6 mg %
[1]; Table 4, 50 mg/kg, 2nd day, oxonate control 2.6
  Urine Amount of uric acid: 2.1 mg/24 h
[1]; Table 4, 50 mg/kg, 2nd day, oxonate control 23.9
  Urine Uric acid conc.: 18.7 mg %
[1]; Table 4, 50 mg/kg, 3rd day, oxonate control 3.4
  Urine Amount of uric acid: 3.8 mg/24 h
[1]; Table 4, 50 mg/kg, 3rd day, oxonate control 36.4
  Urine Uric acid conc.: 31.6 mg %
[1]; Table 4, 50 mg/kg, oxonate control 6.7
  Serum Uric acid conc.: 6.2 mg %
[1]; Table 4, 100 mg/kg, 1st day, oxonate control 0.80
  Urine Amount of uric acid: 0.9 mg/24 h
[1]; Table 4, 100 mg/kg, 1st day, oxonate control 11.3
  Urine Uric acid conc.: 12.7 mg %
[1]; Table 4, 100 mg/kg, 2nd day, oxonate control 2.6
  Urine Amount of uric acid: 2.0 mg/24 h
[1]; Table 4, 100 mg/kg, 2nd day, oxonate control 23.9
  Urine Uric acid conc.: 19.9 mg %
[1]; Table 4, 100 mg/kg, 3rd day, oxonate control 3.4
  Urine Amount of uric acid: 3.7 mg/24 h
[1]; Table 4, 100 mg/kg, 3rd day, oxonate control 36.4
  Urine Uric acid conc.: 28.2 mg %
[1]; Table 4, 100 mg/kg, oxonate control 6.7
  Serum Uric acid conc.: 5.2 mg %

## O=C(ON=CC(=C(Br)c1ccccc1)c1ccccc1)c1ccccc1 [Example 5, O-benzoyl-2-phenyl-3-bromo-cinnamic aldoxime]
[1]; [3]
  Urine Amount of uric acid: 2.59 mg/24 h
[1]; [4]
  Urine Uric acid conc.: 38.9 mg %
[1]; [5]
  Urine Amount of uric acid: 2.41 mg/24 h
[1]; [6]
  Urine Uric acid conc.: 32.4 mg %
[1]; [7]
  Urine Amount of uric acid: 3.68 mg/24 h
[1]; [8]
  Urine Uric acid conc.: 34.7 mg %
[1]; [9]
  Serum Uric acid conc.: 4.07 mg %

## CC(=O)ON=CC(=C(Br)c1ccccc1)c1ccccc1 [Example 6, O-acetyl-2-phenyl-3-bromo-cinnamic aldoxime]
[1]; [3]
  Urine Amount of uric acid: 2.40 mg/24 h
[1]; [4]
  Urine Uric acid conc.: 33.4 mg %
[1]; [5]
  Urine Amount of uric acid: 2.96 mg/24 h
[1]; [6]
  Urine Uric acid conc.: 32.8 mg %
[1]; [7]
  Urine Amount of uric acid: 2.98 mg/24 h
[1]; [8]
  Urine Uric acid conc.: 32.7 mg %
[1]; [9]
  Serum Uric acid conc.: 3.65 mg %

## CCCCCCCCCC(=O)ON=CC(=C(Br)c1ccccc1)c1ccccc1 [Example 7, O-caprinoyl-2-phenyl-3-bromo-cinnamic aldoxime]
[1]; [3]
  Urine Amount of uric acid: 2.78 mg/24 h
[1]; [4]
  Urine Uric acid conc.: 36.4 mg %
[1]; [5]
  Urine Amount of uric acid: 2.99 mg/24 h
[1]; [6]
  Urine Uric acid conc.: 31.8 mg %
[1]; [7]
  Urine Amount of uric acid: 2.74 mg/24 h
[1]; [8]
  Urine Uric acid conc.: 31.2 mg %
[1]; [9]
  Serum Uric acid conc.: 4.03 mg %

## CCCCCCCCCC(=O)ON=CC(=C(Cl)c1ccc(OC)cc1)c1ccc(OC)cc1 [Example 8, O-caprinoyl-2-(4-methoxyphenyl)-3-chloro-p-methoxy-cinnamic aldoxime]
[2]; Table 2 II, 0.3 mg/kg, control 2.74 + 1.43
  Uric acid excretion (-x ± SD): 3.25 + 1.68 mg/24 hr./100 g b. wt.
[2]; Table 2 II, 0.3 mg/kg
  Uric acid serum (-x (mg %) ± SD): 5.00 + 0.54 mg %
[2]; [10]
  Uric acid excretion, % control: 118 % control
  Uric acid serum, % control: 92 % control
[2]; Table 2 II, 3.0 mg/kg, control 2.74 + 1.43
  Uric acid excretion (-x ± SD): 2.46 + 1.19 mg/24 hr./100 g b. wt.
[2]; Table 2 II, 3.0 mg/kg
  Uric acid serum (-x (mg %) ± SD): 4.81 + 0.74 mg %
[2]; [11]
  Uric acid excretion, % control: 89 % control
  Uric acid serum, % control: 88 % control
[2]; oxonate rat
  Activity in words (heading of Table 2): uricosuric and hypouricemic activity

## O=C(Nc1ccccc1)ON=CC(=C(Br)c1ccccc1)c1ccccc1 [Example 14, 2-phenyl-3-bromo-cinnamic aldoxime-O-(N-phenyl)-carbamate]
[2]; Table 2 I, 3 mg/kg, control 0.09 + 0.03
  Amount of urine Na+: 0.11 + 0.02 mg/24 hr/100 g b. wt.
[2]; Table 2 I, 3 mg/kg, control 7.1 + 2.1
  Amount of urine excreted (-x + SD): 9.3 + 3.06 ml/24 hr./100 g b. wt.
[2]; Table 2 I, 3 mg/kg, control 7.5 + 0.2, * statistically significant (Scheffe test)
  urine pH: 7.2 + 0.08
[2]; [12]
  Amount of urine excreted, % control: 130 % control
  Uric acid excretion, % control: 118 % control
[2]; Table 2 I, oxonate rat, 3 mg/kg, into the stomach
  Uric acid excretion (-x ± SD): 3.52 ± 1.11 mg/24 hr./100 g b. wt.
[2]; oxonate rat
  Activity in words (heading of Table 2): uricosuric activity
